Test results from patent US7163689B2, “Intravenous valproate for acute treatment of migraine headache” (priority 1999, dated 2007).
Where “and” joins values, the source holds several entries; their conditions need not be identical. Equal values may be shown once.

Experiments:
Assay type in all cases: in vivo, human
[1] = test system: patients with prolonged moderate to severe migraine; test: Further expanded study (N=40): Depacon vs DHE preceded by metoclopramide, prolonged moderate to severe migraine (Example 3); settings: for Headache Severity (group value, four grade rating) / Number of Patients Who Reported Nausea / Number of Patients Who Reported Phonophobia / Number of Patients Who Reported Photophobia / Responder Rate / Symptom Free patients (no headache or associated symptomatology), % / Symptom Free patients (no headache or associated symptomatology), number: N = 20 per group
Description: This Example describes a further expanded study and analysis of the effectiveness of intravenous VPA for the treatment of acute migraine headache of significant duration. Patient data from the study described in Examples 1 and 2 have been incorporated and further analyzed in addition to new patient data. • Design and Methods. Participants (N=40) were from age 14 to 74 and were established patients of the Western New England Headache Clinic. Patients called to report the pressure of prolonged moderate to severe migraine. They had no evidence of conditions other than migraine to cause headache and were medically stable. […] Patients received a neurological and general physical examination and filled out a four grade baseline headache rating from developed by Western New England Headache Clinic (see Table 2). The patients then received either 500 mg Depacon™ over 15–30 minutes administered in 100 ccs D5W, or 1 mg DHE intramuscularly preceded by 10 mg metoclopramide intramuscularly. Headache severity and associated symptomatology were rated 1, 2, and 4 hours. Results. A total of 40 patients were randomized, 20 in the Depacon™ group and 20 in the DHE group. Table VII summarizes the number of patients in each group by severity of headache (moderate or severe), demographic data and medication assignment.

[2] = test system: patients with moderate to severe headaches of 24–72 hours duration; test: Expanded study: IV VPA vs DHE with metoclopramide IM, acute migraine headache (Example 2); settings: 24-h
[3] = test system: patients with moderate to severe migraine headaches of duration of 24 to 96 hrs; test: Pilot study: IV valproate vs IM DHE with metoclopramide for abortive treatment of acute migraine headache (Example 1); settings: individual patient, grade 0-3; 24-h
[4] = test system: patients with moderate to severe migraine headaches of duration of 24 to 96 hrs; test: as above; settings: for % Headache Relief: 5 patients per group; for Headache Severity / Nausea/vomiting / Phonophobia / Photophobia: individual patient; for Headache Severity: grade 0-3; for Nausea/vomiting / Phonophobia / Photophobia: presence; for patients who had nausea / patients who had relief of phonophobia / patients who had relief of photophobia / patients with response of headache from moderate or severe to none or mild: of 5 patients
Description: This Example describes the results of a pilot study using intravenous valproate for abortive treatment of acute migraine headache. • Methods. Patients with established diagnosis of migraine with and without aura were considered for randomization to intravenous (“IV”) valproate (“VPA”) or intramuscular (“IM”) dihydroergotamine (“DHE”) with metoclopramide, also referred to herein as […]®, for patients with moderate to severe migraine headaches of duration of 24 to 96 hrs. Patients received intravenous infusion of 500 mgs of valproate over 30 mins or 1 mg DHE with 10 mgs metoclopramide IM. Headache severity, presence of nausea, phonophobia and photophobia were rated at baseline, 1 hr, 2 hrs, and 4 hrs. Table I and II. There were 5 patients in each group. • Results. Of the 5 patients receiving valproate, 4 of the 5 had response of their headaches from moderate or severe to none or mild at 1 hr, 2 hrs, and 4 hrs. Of the 5 patients receiving DHE, 3 of the 5 patients had headache response to moderate or severe to mild or none at 1 hr, 2 hrs, and 4 hrs. Table III. […] In the DHE group, 2 of 5 had nausea at baseline, and 1 had nausea at 1 hr, 2 hrs, and 4 hrs. Table IVa. […] In the DHE group, 3 of 5 had relief of photophobia at 1 hr, 4 of 5 had relief at 2 hrs and 4 hrs. […] In the DHE group, 2 of 5 had relief of phonophobia at 1 hr, and 3 of 5 had relief of phonophobia at 2 hrs and 4 hrs. Table IVb. • Conclusions. Intravenous valproate is an alternative therapy for abortive treatment of moderate to severe prolonged acute migraine headache. Anti-convulsant mechanisms may be relevant to treatment of headache symptomatology.

CN1C[C@H](C(=O)N[C@]2(C)O[C@@]3(O)[C@@H]4CCCN4C(=O)[C@H](Cc4ccccc4)N3C2=O)C[C@@H]2c3cccc4[nH]cc(c34)C[C@H]21 [DHE, dihydroergotamine]
% of Patients Who Reported Nausea ([1]; 1 hour): 42% | % of Patients Who Reported Phonophobia ([1]; 1 hour): 67% | % of Patients Who Reported Photophobia ([1]; 1 hour): 75% | % of Patients Who Reported Nausea ([1]; 2 hours): 50% | % of Patients Who Reported Phonophobia ([1]; 2 hours): 67% | % of Patients Who Reported Photophobia ([1]; 2 hours): 65% | % of Patients Who Reported Nausea ([1]; 4 hours): 50% | % of Patients Who Reported Phonophobia ([1]; 4 hours): 61% | % of Patients Who Reported Photophobia ([1]; 4 hours): 55% | % of Patients Who Reported Nausea ([1]; Baseline): (60%) | % of Patients Who Reported Phonophobia ([1]; Baseline): 90% | % of Patients Who Reported Photophobia ([1]; Baseline): 100% | Headache Severity (group value, four grade rating) ([1]; 1 hour): 1.5 | Number of Patients Who Reported Nausea ([1]; 1 hour): 5 | Number of Patients Who Reported Phonophobia ([1]; 1 hour): 12 | Number of Patients Who Reported Photophobia ([1]; 1 hour): 15 | Responder Rate ([1]; 1 hour): 45% | Headache Severity (group value, four grade rating) ([1]; 2 hours): 1.4 | Number of Patients Who Reported Nausea ([1]; 2 hours): 6 | Number of Patients Who Reported Phonophobia ([1]; 2 hours): 12 | Number of Patients Who Reported Photophobia ([1]; 2 hours): 13 | Responder Rate ([1]; 2 hours): 50% | Headache Severity (group value, four grade rating) ([1]; 4 hours): 1.2 | Number of Patients Who Reported Nausea ([1]; 4 hours): 6 | Number of Patients Who Reported Phonophobia ([1]; 4 hours): 11 | Number of Patients Who Reported Photophobia ([1]; 4 hours): 11 | Responder Rate ([1]; 4 hours): 60% | Headache Severity (group value, four grade rating) ([1]; Baseline): 2.6 | Number of Patients Who Reported Nausea ([1]; Baseline): DHE 12 | Number of Patients Who Reported Phonophobia ([1]; Baseline): 18 | Number of Patients Who Reported Photophobia ([1]; Baseline): 20 | Symptom Free patients (no headache or associated symptomatology), % ([1]; at 1 hour): 15% | Symptom Free patients (no headache or associated symptomatology), number ([1]; at 1 hour): 3 | Symptom Free patients (no headache or associated symptomatology), % ([1]; at 2 hours): 25% | Symptom Free patients (no headache or associated symptomatology), number ([1]; at 2 hours): 5 | Symptom Free patients (no headache or associated symptomatology), % ([1]; at 4 hours): 30% | Symptom Free patients (no headache or associated symptomatology), number ([1]; at 4 hours): 6 | % experiencing Photophobia [2]: 20% | Photophobia ([2]; individual patient, presence): 0 | Headache Severity [3]: 1 (2×) and 0 and 2 | % experiencing Nausea ([4]; 0-h (baseline)): 40% | % experiencing Photophobia ([4]; 0-h (baseline)): 100% | % experiencing phonphobia ([4]; 0-h (baseline)): 80% | % experiencing Nausea ([4]; 1-h): 20% | % experiencing Photophobia ([4]; 1-h): 60% | % experiencing phonphobia ([4]; 1-h): 40% | % experiencing Nausea ([4]; 2-h): 50% | % experiencing Photophobia ([4]; 2-h): 50% | % experiencing phonphobia ([4]; 2-h): 50% | % experiencing Nausea ([4]; 4-h): 40% | % experiencing Photophobia ([4]; 4-h): 40% | % experiencing phonphobia ([4]; 4-h): 40% | % Headache Relief ([4]; 1-h): 60% | % Headache Relief ([4]; 2-h): 50% | % Headache Relief ([4]; 4-h): 60% | Headache Severity ([4]; 0-h (baseline), Depacon IV 500 mg or DHE 1 mg + Reglan 10 mg): 2 and 3 (4×) | Headache Severity ([4]; 1-h): 3 and 0 (2×) and 1 and 2 | Headache Severity ([4]; 2-h): 3 and 0 (2×) and 2 | Headache Severity ([4]; 4-h): 3 and 1 and 0 (2×) and 2 | Nausea/vomiting ([4]; 0-h (baseline)): 0 | Phonophobia ([4]; 0-h (baseline)): 0 | Nausea/vomiting ([4]; 1-h): 0 | Phonophobia ([4]; 1-h): 0 | Photophobia ([4]; 1-h): 0 | Nausea/vomiting ([4]; 2-h): 0 | Phonophobia ([4]; 2-h): 0 | Photophobia ([4]; 2-h): 0 | Nausea/vomiting ([4]; 4-h): 0 | Phonophobia ([4]; 4-h): 0 | Photophobia ([4]; 4-h): 0 | Nausea/vomiting ([4]; 24-h): 0 | Phonophobia ([4]; 24-h): 0 | Photophobia ([4]; 24-h): 0 | patients who had nausea ([4]; 1 hr): 1 | patients who had relief of phonophobia ([4]; 1 hr): 2 of 5 | patients who had relief of photophobia ([4]; 1 hr): 3 of 5 | patients with response of headache from moderate or severe to none or mild ([4]; 1 hr): 3 of the 5 | patients who had nausea ([4]; 2 hrs): 1 | patients who had relief of phonophobia ([4]; 2 hrs): 3 of 5 | patients who had relief of photophobia ([4]; 2 hrs): 4 of 5 | patients with response of headache from moderate or severe to none or mild ([4]; 2 hrs): 3 of the 5 | patients who had nausea ([4]; 4 hrs): 1 | patients who had relief of phonophobia ([4]; 4 hrs): 3 of 5 | patients who had relief of photophobia ([4]; 4 hrs): 4 of 5 | patients with response of headache from moderate or severe to none or mild ([4]; 4 hrs): 3 of the 5 | patients who had nausea ([4]; baseline): 2 of 5
